Results published in patent publication US20020035061A1, “COMPOSITIONS AND METHODS FOR TREATING INFECTIONS USING CATIONIC PEPTIDES ALONE OR IN COMBINATION WITH ANTIBIOTICS” (priority 1996, published 2002).
Values after ≈ are worked out from the molar mass of the structure shown. Read-outs that look alike come from different tables or passages of the source.

Key:
Experiment in all cases: microbe, parasite or virus in culture
Assay type in all cases: cell-based
[1] = system: microorganisms with acquired resistance; settings: for Peptide MIC: in µg/mL
[2] = system: inherently resistant microorganisms
bacterial isolates = settings: combination with Ampicillin
[3] = Staphylococcus aureus, read-out: MIC alone (antibiotic agent), S. aureus
[4] = Staphylococcus haemolyticus, read-out: MIC alone (antibiotic agent), S. haemolyticus

## CC1(C)S[C@@H]2[C@H](NC(=O)[C@H](N)c3ccccc3)C(=O)N2[C@H]1C(=O)O [Ampicillin]
[1]; S. aureus, with MBI 26
  MIC comb. (antibiotic agent): 0.25 µg/mL (≈ 0.715 µM)
[1]; S. haemolyticus, with MBI 26
  MIC comb. (antibiotic agent): 0.25 µg/mL (≈ 0.715 µM)
[1]; [3]
  MIC: 2 µg/mL (≈ 5.72 µM)

## KKWWRRVLKGLSSGPALSNV [MBI 21A10]
[1]; S. aureus, combination with Mupirocin
  Peptide MIC: 32

## CC[C@H]1OC(=O)[C@H](C)[C@@H](O[C@H]2C[C@@](C)(OC)[C@@H](O)[C@H](C)O2)[C@H](C)[C@@H](O[C@@H]2O[C@H](C)C[C@H](N(C)C)[C@H]2O)[C@](C)(O)C[C@@H](C)C(=O)[C@H](C)[C@@H](O)[C@]1(C)O [Erythromycin]
[2]; Acinetobacter calcoaceticus, read-out: Erythromycin MIC + MBI 26, A. calcoaceticus AC001
  MIC: 1 µg/mL
[2]; Klebsiella pneumoniae, read-out: Erythromycin MIC + MBI 26, K. pneumoniae KP001
  MIC: 0.25 µg/mL
[2]; Klebsiella pneumoniae, read-out: Erythromycin MIC + MBI 26, K. pneumoniae KP002
  MIC: 0.5 µg/mL
[2]; Klebsiella pneumoniae, read-out: Erythromycin MIC Alone, K. pneumoniae KP002
  MIC: 256 µg/mL (≈ 349 µM)
[2]; Pseudomonas aeruginosa, read-out: Erythromycin MIC + MBI 26, P. aeruginosa PA041
  MIC: 4 µg/mL
[2]; Pseudomonas aeruginosa, read-out: Erythromycin MIC Alone, P. aeruginosa PA041
  MIC: 128 µg/mL (≈ 174 µM)
[1]; [3]
  MIC: 8 µg/mL (≈ 10.9 µM)
[1]; Staphylococcus epidermidis, read-out: MIC alone (antibiotic agent), S. epidermidis
  MIC: 8 µg/mL (≈ 10.9 µM)
[1]; [4]
  MIC: 8 µg/mL (≈ 10.9 µM)

## CC(C)(O/N=C(\C(=O)N[C@@H]1C(=O)N2C(C(=O)[O-])=C(C[n+]3ccccc3)CS[C@H]12)c1csc(N)n1)C(=O)O [Ceftazidime]
[1]; A. calcoaceticus, with MBI 26
  MIC comb. (antibiotic agent): 2 µg/mL (≈ 3.66 µM)
[1]; A. calcoaceticus, with MBI 29
  MIC comb. (antibiotic agent): 2 µg/mL (≈ 3.66 µM)
[1]; Acinetobacter calcoaceticus, read-out: MIC alone (antibiotic agent), A. calcoaceticus
  MIC: 32 µg/mL (≈ 58.5 µM)
[1]; P. aeruginosa, with MBI 29
  MIC comb. (antibiotic agent): 16 µg/mL (≈ 29.3 µM)
[1]; Pseudomonas aeruginosa, read-out: MIC alone (antibiotic agent), P. aeruginosa
  MIC: 64 µg/mL (≈ 117 µM)

## COc1cccc(OC)c1C(=O)N[C@@H]1C(=O)N2[C@@H]1SC(C)(C)[C@@H]2C(=O)O [Methicillin]
[1]; S. haemolyticus, with MBI 26
  MIC comb. (antibiotic agent): 0.25 µg/mL (≈ 0.657 µM)
[1]; [4]
  MIC: 64 µg/mL (≈ 168 µM)

## GKPRPYSPIPTSPRPIRY [MBI 31]
[1]; S. aureus, combination with Erythromycin
  Peptide MIC: 0.125
Bacterial isolates; S. epidermidis SE8416
  FIC: 0.52
Bacterial isolates; S. epidermidis SH8575
  FIC: 0.27
Bacterial isolates; S. haemolyticus SA7797
  FIC: 0.50
Bacterial isolates; S. haemolyticus SA7817
  FIC: 0.26
Bacterial isolates; S. haemolyticus SA7818
  FIC: 0.52
Bacterial isolates; S. haemolyticus SA7834
  FIC: 0.52
Bacterial isolates; S. haemolyticus SA7835
  FIC: 0.50
Bacterial isolates; S. haemolyticus SH8597
  FIC: 1.00
